The test system of data set [1] is mouse organotypic cerebellar slices. Briefly: Remyelination of organotypic cerebellar slices after LPC demyelination (Mbp mRNA by quantitative PCR). Conditions: LPC 0.4 mg/ml, then treatment in serum-free culture medium for 14-16 days; barbadin 16 µM, 7α,25OHC 0.1 µM, NIBR189 10 µM; concentration of CF3-7α,25OHC not given; vs untreated LPC slices. Type of data set: cell-based. As for the experimental part: (§1) Organotypic cerebellar slices were sampled from ten-day old mice and then grown in an incubator for 14 days. After 14 days the myelin was chemically removed with LPC (0.4 mg/ml). Following the removal of the myelin sheaths, the slices were treated with: • 1. the control group: regular culture medium, without LPC • 2. LPC, then on serum-free culture medium for 14-16 days • 3. LPC followed by barbadin 16 µM in serum-free culture medium for 14-16 days • 4. LPC followed by 7α,25OHC 0.1 µM in serum-free culture medium for 14-16 days • 5. LPC followed by NIBR189 10 µM in serum-free culture medium for 14-16 days • 6. LPC followed by barbadin 16 µM + 7α,25OHC 0.1 µM in serum-free culture medium for 14-16 days
Once the experiment was completed (remyelination for 14-16 days) the slices were collected and MBP mRNA levels were measured by the PCR quantitative method. In the mouse organotypic cerebellar slices in which myelin sheaths were chemically removed with lysophosphatidylcholine (LPC) spontaneous myelin regeneration took place except for the slices treated with a selective EBI2 receptor antagonist (NIBR189). The results once again reveal key significance of EBI2 intracellular signalling for myelin regeneration. […] Barbadin, which inhibits internalisation of the EBI2 receptor, is necessary to achieve the therapeutic effect (faster remyelination) in the case of non-modified oxysterol (Fig 1 and Fig 2a).

The subject of the next data set is Ebi2 receptor. Briefly: Ebi2 mRNA level in organotypic cerebellar slices. Format: cell-based, mouse. Conditions: slices first treated with LPC and then with 7α,25OHC. As for the experimental part: as §1
(§2) Measurement of the mRNA level of the Ebi2 receptor and of the enzymes synthesizing (Ch25h, Cyp7b1) and degrading (Hsd3b7) the natural ligand 7α,25OHC in organotypic cerebellar slices treated with non-modified oxysterol 7α,25OHC (Fig 5) (tissue and treatments as in Fig 1 and Fig 2a) and in cerebella of the mice subject to the cuprizone model, treated with modified oxysterol CF3-7α,25OHC (Fig 6). LPC treatment modulates enzymes which synthesise and degrade the natural oxysterol 7α,25OHC.

The next data set concerns Ch25h. Kind of data set: mRNA level of oxysterol-synthesizing enzyme in organotypic cerebellar slices. Format: cell-based, mouse. Conditions: slices first treated with LPC and then with 7α,25OHC. As for the experimental part: as §1, §2
The conditions of data set [2]: mice, subcutaneous or intraperitoneal injection, elimination from blood; cited from earlier work.
In another data set the test system is white blood cells. Kind of data set: Cuprizone model: blood morphology (white blood cell counts). Format: in vivo, mice. Conditions: after 14 days of treatment in the cuprizone model; CF3-7α,25OHC 20 mg/kg s.c., barbadin 0.3 mg/kg i.p.; compared to vehicle group #3. The procedure:
C (Fig 7) or #3 (Fig 8 and 9) vehicle control group - the mice were fed with chow containing cuprizone for 9 weeks, and then with regular chow without cuprizone for another 2 weeks. Over the 2 weeks on regular chow the mice in the vehicle control group were first injected vehicle #1: DMSO (intraperitoneal injection), 150 µl once a day, and then vehicle #2: canola oil, subcutaneously, 150 µl once a day.
#4 (Fig 8 and 9) barbadin control group - the mice were fed with chow containing cuprizone for 9 weeks, and then with regular chow without cuprizone for another 2 weeks. Over the 2 weeks on regular chow the mice in the group were injected barbadin 0.3 mg/kg, intraperitoneally, 150 µl once a day, and then vehicle #2: canola oil, subcutaneously, 150 µl once a day.
E (Fig 7) or #5 experimental group with oxysterol CF3-7α,25OHC - the mice were fed with chow containing cuprizone for 9 weeks, and then with regular chow without cuprizone for another 2 weeks. Over the 2 weeks on regular chow the mice in the group were injected vehicle #1: DMSO, intraperitoneally, 150 µl once a day, and CF3-7α,25OHC, dose: 20 mg/kg, subcutaneously, 150 µl once a day.
#6 (Fig 8 and 9) experimental group with barbadin + oxysterol CF3-7α,25OHC - the mice were fed with chow containing cuprizone for 9 weeks, and then with regular chow without cuprizone for another 2 weeks. Over the 2 weeks on regular chow the mice in the group were injected barbadin, 0.3 mg/kg, intraperitoneally, 150 µl once a day, and then one hour following the barbadin injection they were injected CF3-7α,25OHC, dose: 20 mg/kg, subcutaneously, 150 µl once a day.
The blood from the heart was sampled after the mice had been euthanised, and blood morphology test was performed using a standard diagnostic analyser. […] The lymphocyte count in peripheral blood of the mice which had been injected with CF3-7α,25OHC was lower by 50% compared to the control group of mice injected with vehicles (gr. #3 or C). The specific action of CF3-7α,25OHC leading to reduction of the lymphocyte count in blood finds confirmation in the results obtained for the mice of groups #4 (or D) and #6 (or F). Compared to the control group, the lymphocyte count in blood in the group of mice injected with barbadin (#4 or D) was lower only by 21%, and in the group of mice injected with barbadin + CF3-7α,25OHC by 7%. Following interaction with CF3-7α,25OHC, barbadin blocks internalisation of the EBI2 receptor from the cell membrane. The absence of any significant effect related to the treatment with barbadin or barbadin + CF3-7α,25OHC indicates a specific action of CF3-7α,25OHC on the EBI2 receptor and the consequential effects of that action, namely reduction of the count of circulating lymphocytes in blood. Moreover, the number of monocytes in group #5 (or E: mice treated with CF3-7α,25OHC) was lower by as much as 66% and the total leukocyte count (lymphocytes and monocytes included) was also substantially lower (by 51%), though only in the group of mice injected with CF3-7α,25OHC. In our subsequent in vivo tests (short-term pharmacology) we confirmed the action of CF3-7α,25OHC. In that test, too, it reduced the count of white blood cells. CF3-7α,25OHC reduces the lymphocyte count as early as following the 4 mg/kg dose and the effect lasts for 24 hours following administration.

In data set [3] the test system is pro-inflammatory cytokine IL1β. Kind of data set: Cuprizone model: IL1β mRNA in cerebellum lysates by PCR. The conditions noted are these: cerebellum lysates, cuprizone model; versus the group treated solely with vehicles.
Text: Identifying the mRNA levels of pro-inflammatory cytokine IL1β in mouse cerebellum lysates (Fig 11).

Entries after “also recorded” stand apart in the source; their conditions may differ.

In the case of `C[C@H](CCCC(C)(C)O)[C@H]1CC[C@H]2[C@@H]3[C@H](O)C=C4C[C@@H](O)CC[C@]4(C)[C@H]3CC[C@]12C` [7α,25OHC], the “remyelination (Mbp expression)” value in data set [1] was “do not remyelinate quicker than ones not subject to any treatment; also recorded: do not remyelinate faster than the untreated slices”. Besides, in the data set on Ebi2 receptor, the Ebi2 expression result is listed as “reduces the expression level of receptor EBI2; also recorded: does not increase its expression; also recorded: does not increase Ebi2 expression”. In addition, in the data set on Ch25h, the “level of Ch25h” value is recorded as “reduces the level of Ch25h”. Also, in data set [2], the half-life result is “ca. 30 minutes”.

Take `COc1ccc(C(=O)N2CCN(C(=O)/C=C/c3ccc(Br)cc3)CC2)cc1` [NIBR189, (2E)-3-(4-bromophenyl)-1-(4-(4-methoxybenzyoil)-1-piperazine)-2-propen-1-on]: the “remyelination (Mbp expression)” value in data set [1] was “do not remyelinate”.

For `Nn1cnc2scc(-c3ccc(Cc4ccccc4)cc3)c2c1=O` [barbadin, reference compound], the “drop in lymphocytes (lymphocyte count in peripheral blood lower by)” value in the data set on white blood cells was found to be 21%. In data set [3], the “mRNA level of IL1β went up by” value is given as 2%.
